Reference: the supplement of paper PMC8671470

Columns and labels:
Conditions in all cases: 72 h
Mono-Mac-6 [1] = assay: cell viability (% survival relative to DMSO control, bortezomib = 0%); higher = less cytotoxic
In short: (§1)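 Percent survival is reported as the mean of duplicate wells. Cells from 10 AML and 5 CML lines were plated in 384-well plates containing compounds at 1, 10, 100, 1000 or 10000 nM and kept for 72 h at 37 °C in 5% CO2. Readout used CellTiter-Glo luminescence, scaled so that vehicle equals 100% and a 10 µM positive control equals 0%.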

NOMO-1 [2] = assay: as above
In short: as §1

THP-1 [3] = assay: as above
In short: as §1

ML-2 [4] = assay: as above
In short: as §1

KCL-22 [5] = assay: as above
In short: as §1

BV-173 [6] = assay: as above
In short: as §1

HEL [7] = assay: as above
In short: as §1

KU-812 [8] = assay: as above
In short: as §1

K-562 [9] = assay: as above
In short: as §1

KG-1 [10] = assay: as above
In short: as §1

LAMA-84 [11] = assay: as above
In short: as §1

HL-60 [12] = assay: as above
In short: as §1

MV4-11 [13] = assay: as above
In short: as §1

MOLM-13 [14] = assay: as above
In short: as §1

SHI-1 [15] = assay: as above
In short: as §1

Mono-Mac-6 [16] = test system: Mono-Mac-6
In short: (§2)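 For the IC50, dose–response curves were fitted with a log-logistic model. The data came from fifteen myeloid leukaemia cell lines grown in RPMI 1640 at densities in the linear growth range and incubated in 384-well plates for 72 h at 37 °C under 5% CO2. Doses were five tenfold steps from 1 to 10,000 nM in duplicate, and luminescent ATP viability was normalised to vehicle and to a positive control at 10 µM before four-parameter fitting.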

NOMO-1 [17] = test system: NOMO-1
In short: as §2

THP-1 [18] = test system: THP-1
In short: as §2

ML-2 [19] = test system: ML-2
In short: as §2

KCL-22 [20] = test system: KCL-22
In short: as §2

BV-173 [21] = test system: BV-173
In short: as §2

HEL [22] = test system: HEL
In short: as §2

KU-812 [23] = test system: KU-812
In short: as §2

K-562 [24] = test system: K-562
In short: as §2

KG-1 [25] = test system: KG-1
In short: as §2

LAMA-84 [26] = test system: LAMA-84
In short: as §2

HL-60 [27] = test system: HL-60
In short: as §2

MV4-11 [28] = test system: MV4-11
In short: as §2

MOLM-13 [29] = test system: MOLM-13
In short: as §2

SHI-1 [30] = test system: SHI-1
In short: as §2

NS(=O)(=O)c1ccc(NC(=O)Cc2ccccc2)cc1 [4-(2-Phenylacetamido)Benzenesulfonamide]
cell viability [%]
Conditions	1 nM	10 nM	100 nM	1000 nM	10000 nM
BV-173 [6]	118	94.8	105	114	92.9
HEL [7]	106	108	78.6	99	106
HL-60 [12]	162	97.6	115	106	89.7
K-562 [9]	100	99.4	103	112	97.2
KCL-22 [5]	99.8	102	83.9	108	93.9
KG-1 [10]	99	106	85.8	90	103
KU-812 [8]	92.1	99.1	105	105	107
LAMA-84 [11]	97.4	104	110	97.4	102
ML-2 [4]	98.7	102	95.6	108	102
MOLM-13 [14]	95.7	99.9	81	84.6	81.3
MV4-11 [13]	108	109	95.7	91.3	86.6
Mono-Mac-6 [1]	87.8	108	95.9	102	96.9
NOMO-1 [2]	97.5	102	108	109	107
SHI-1 [15]	106	105	91.2	102	102
THP-1 [3]	89.8	105	109	99	87.8

Conditions	IC50 (cell viability) [µM]
BV-173 [21]	> 10
HEL [22]	> 10
HL-60 [27]	> 10
K-562 [24]	> 10
KCL-22 [20]	> 10
KG-1 [25]	> 10
KU-812 [23]	> 10
LAMA-84 [26]	> 10
ML-2 [19]	> 10
MOLM-13 [29]	> 10
MV4-11 [28]	> 10
Mono-Mac-6 [16]	> 10
NOMO-1 [17]	> 10
SHI-1 [30]	> 10
THP-1 [18]	> 10

OCCN(CCO)c1nc(N2CCCCC2)c2nc(N(CCO)CCO)nc(N3CCCCC3)c2n1 [Dipyridamole]
cell viability [%]
Conditions	1 nM	10 nM	100 nM	1000 nM	10000 nM
BV-173 [6]	90.4	98.2	92.4	78.6	38.8
HEL [7]	87.6	101	102	105	77.7
HL-60 [12]	129	65.2	105	61.6	93.8
K-562 [9]	108	89.5	105	85.6	67
KCL-22 [5]	114	95.3	98.9	106	65
KG-1 [10]	94.7	112	101	104	90.2
KU-812 [8]	87.9	98.7	90.7	86.5	69.4
LAMA-84 [11]	97.9	99.6	108	90.3	83.7
ML-2 [4]	93.4	104	123	103	66.4
MOLM-13 [14]	116	117	97.5	83.5	97.8
MV4-11 [13]	95.8	95	101	94.4	43.5
Mono-Mac-6 [1]	98	103	98.5	97.1	77.4
NOMO-1 [2]	98	101	107	92.3	81.9
SHI-1 [15]	104	113	110	92.2	80.9
THP-1 [3]	96.6	100	107	90.8	81.5

Conditions	IC50 (cell viability) [µM]
BV-173 [21]	3.55
HEL [22]	> 10
HL-60 [27]	> 10
K-562 [24]	> 10
KCL-22 [20]	> 10
KG-1 [25]	> 10
KU-812 [23]	> 10
LAMA-84 [26]	> 10
ML-2 [19]	> 10
MOLM-13 [29]	> 10
MV4-11 [28]	8.82
Mono-Mac-6 [16]	> 10
NOMO-1 [17]	> 10
SHI-1 [30]	> 10
THP-1 [18]	> 10

OC[C@H]1OC(O)C[C@@H](O)[C@@H]1O (stereo not given in full) [2-deoxyglucose]
cell viability [%]
Conditions	1 nM	10 nM	100 nM	1000 nM	10000 nM
BV-173 [6]	126	107	109	90.4	106
HEL [7]	123	113	112	93.3	95.1
HL-60 [12]	82.5	92	106	102	94.7
K-562 [9]	107	117	94.2	101	99.6
KCL-22 [5]	110	107	107	90.6	104
KG-1 [10]	111	95.2	98.9	82.6	92.9
KU-812 [8]	105	101	101	85.1	95.5
LAMA-84 [11]	107	114	95.6	86.3	96.8
ML-2 [4]	101	110	102	89.4	96.1
MOLM-13 [14]	86.7	108	93	90.1	86.4
MV4-11 [13]	102	91.4	100	92	110
Mono-Mac-6 [1]	65.6	99.3	102	89.4	99.2
NOMO-1 [2]	112	100	107	87.9	93.6
SHI-1 [15]	112	105	105	93.4	98.3
THP-1 [3]	92	96.1	105	86.9	100

Conditions	IC50 (cell viability) [µM]
BV-173 [21]	> 10
HEL [22]	> 10
HL-60 [27]	> 10
K-562 [24]	> 10
KCL-22 [20]	> 10
KG-1 [25]	> 10
KU-812 [23]	> 10
LAMA-84 [26]	> 10
ML-2 [19]	> 10
MOLM-13 [29]	> 10
MV4-11 [28]	> 10
Mono-Mac-6 [16]	> 10
NOMO-1 [17]	> 10
SHI-1 [30]	> 10
THP-1 [18]	> 10

Cl.OC[C@H]1NC[C@H](O)[C@@H](O)[C@H]1O [Migalastat]
cell viability [%]
Conditions	1 nM	10 nM	100 nM	1000 nM	10000 nM
BV-173 [6]	97.1	102	113	105	87.6
HEL [7]	99.2	99.3	101	104	101
HL-60 [12]	92.9	86.1	113	106	106
K-562 [9]	109	94.7	107	101	99.1
KCL-22 [5]	95.6	90.2	101	102	100
KG-1 [10]	104	98.9	107	99.6	96.3
KU-812 [8]	92.1	92.3	99.4	98.1	98.5
LAMA-84 [11]	106	96.8	103	99	92.7
ML-2 [4]	98.5	97.1	111	103	100
MOLM-13 [14]	83.6	89.2	104	116	101
MV4-11 [13]	117	95.7	100	104	97.2
Mono-Mac-6 [1]	102	87.4	104	98.3	103
NOMO-1 [2]	101	103	104	100	94.8
SHI-1 [15]	113	96.2	109	102	107
THP-1 [3]	102	99.1	104	98.7	90.9

Conditions	IC50 (cell viability) [µM]
BV-173 [21]	> 10
HEL [22]	> 10
HL-60 [27]	> 10
K-562 [24]	> 10
KCL-22 [20]	> 10
KG-1 [25]	> 10
KU-812 [23]	> 10
LAMA-84 [26]	> 10
ML-2 [19]	> 10
MOLM-13 [29]	> 10
MV4-11 [28]	> 10
Mono-Mac-6 [16]	> 10
NOMO-1 [17]	> 10
SHI-1 [30]	> 10
THP-1 [18]	> 10

N[C@@H](CCC(=O)N[C@@H](CS)C(=O)NCC(=O)O)C(=O)O [Glutathione]
cell viability [%]
Conditions	1 nM	10 nM	100 nM	1000 nM	10000 nM
BV-173 [6]	102	99.4	94.4	101	91.9
HEL [7]	106	95.7	96.1	94.2	111
HL-60 [12]	77.8	94.8	98.7	70.5	105
K-562 [9]	94.4	106	92.2	93.6	98.7
KCL-22 [5]	101	110	91.4	95.6	107
KG-1 [10]	106	101	111	95.7	110
KU-812 [8]	105	110	108	96	96.5
LAMA-84 [11]	100	98.1	97.6	98.1	104
ML-2 [4]	93.2	106	103	93	104
MOLM-13 [14]	111	114	91.4	92.5	92.1
MV4-11 [13]	106	99.2	107	80.9	106
Mono-Mac-6 [1]	96.2	89.5	84.9	103	89.9
NOMO-1 [2]	98.9	105	91.1	94.2	106
SHI-1 [15]	99.3	106	106	97.5	95.3
THP-1 [3]	100	102	95.4	105	105

Conditions	IC50 (cell viability) [µM]
BV-173 [21]	> 10
HEL [22]	> 10
HL-60 [27]	> 10
K-562 [24]	> 10
KCL-22 [20]	> 10
KG-1 [25]	> 10
KU-812 [23]	> 10
LAMA-84 [26]	> 10
ML-2 [19]	> 10
MOLM-13 [29]	> 10
MV4-11 [28]	> 10
Mono-Mac-6 [16]	> 10
NOMO-1 [17]	> 10
SHI-1 [30]	> 10
THP-1 [18]	> 10
